Results: the NIST ThermoML archive (doi:10.1021/acs.jced.9b00668)
Numbers after ± are expanded uncertainties. Blank lines part the entries; values can stand above or below the molecule they belong to.

What was measured:
[1] = refractive index (Na D-line) (dimensionless); details: 298.15 K; 101.3 kPa; Liquid; Standard Abbe refractometry
[2] = Liquid; for mass density: 298.15 K, 101.3 kPa, Vibrating tube method; for vapor or sublimation pressure: Ebulliometric method (Recirculating still)
[3] = xn = mol fraction of the nth substance listed; details: 298.15 K, 101.3 kPa, Liquid, Vibrating tube method

SMILES: CC(C)CC(C)(C)C [2,2,4-trimethylpentane] + COC(C)=O
mass density ([3]; x2 = 0): 687.8 ± 0.3 kg/m3

SMILES: CCOC(C)=O [ethyl acetate] + CC(C)CC(C)(C)C
mass density ([3]; x1 = 1): 894.4 ± 0.2 kg/m3

SMILES: CCOC(C)=O [ethyl acetate] + CCCCCCC
mass density ([3]; x1 = 0.0642): 687.5 ± 0.3 kg/m3 | mass density ([3]; x1 = 0.071): 688.3 ± 0.3 kg/m3 | mass density ([3]; x1 = 0.125): 695.2 ± 0.3 kg/m3 | mass density ([3]; x1 = 0.1274): 695.8 ± 0.3 kg/m3 | mass density ([3]; x1 = 0.1932): 705.1 ± 0.3 kg/m3 | mass density ([3]; x1 = 0.2136): 708.2 ± 0.3 kg/m3 | mass density ([3]; x1 = 0.3294): 726.7 ± 0.3 kg/m3 | mass density ([3]; x1 = 0.3874): 736.7 ± 0.3 kg/m3 | mass density ([3]; x1 = 0.4593): 750.2 ± 0.3 kg/m3 | mass density ([3]; x1 = 0.5966): 778.8 ± 0.2 kg/m3 | mass density ([3]; x1 = 0.6582): 793.2 ± 0.2 kg/m3 | mass density ([3]; x1 = 0.6841): 799.3 ± 0.2 kg/m3 | mass density ([3]; x1 = 0.7001): 803.7 ± 0.2 kg/m3 | mass density ([3]; x1 = 0.7346): 812.6 ± 0.2 kg/m3 | mass density ([3]; x1 = 0.8029): 830.8 ± 0.2 kg/m3 | mass density ([3]; x1 = 0.8272): 837.6 ± 0.2 kg/m3 | mass density ([3]; x1 = 0.8471): 843.6 ± 0.2 kg/m3 | mass density ([3]; x1 = 0.9069): 862.1 ± 0.2 kg/m3 | mass density ([3]; x1 = 0.9631): 880.7 ± 0.2 kg/m3 | mass density ([3]; x1 = 1): 894.4 ± 0.2 kg/m3

SMILES: CCCCCCC [heptane]
refractive index [1]: 1.38527 ± 0.0004 | mass density [2]: 679.7 ± 0.3 kg/m3 | vapor or sublimation pressure ([2]; 498.65 K): 1500 ± 15 kPa

SMILES: COC(C)=O [methyl ethanoate]
refractive index [1]: 1.35875 ± 0.00035 | mass density [2]: 927.1 ± 0.2 kg/m3 | vapor or sublimation pressure ([2]; 329.99 K): 100 ± 3 kPa | vapor or sublimation pressure ([2]; 436.08 K): 1500 ± 3 kPa

Now from value to molecule:

refractive index [1]: 1.38905 ± 0.00036 | mass density [2]: 687.8 ± 0.3 kg/m3 | vapor or sublimation pressure ([2]; 371.91 K): 100 ± 3 kPa | vapor or sublimation pressure ([2]; 504.65 K): 1500 ± 3 kPa
SMILES: CC(C)CC(C)(C)C [2,2,4-trimethylpentane]

mass density ([3]; x2 = 0): 687.8 ± 0.3 kg/m3 | mass density ([3]; x2 = 0.0627): 694.4 ± 0.3 kg/m3 | mass density ([3]; x2 = 0.1027): 699 ± 0.3 kg/m3 | mass density ([3]; x2 = 0.1524): 704.9 ± 0.3 kg/m3 | mass density ([3]; x2 = 0.2008): 711.1 ± 0.3 kg/m3 | mass density ([3]; x2 = 0.272): 721 ± 0.3 kg/m3 | mass density ([3]; x2 = 0.3528): 733.3 ± 0.3 kg/m3 | mass density ([3]; x2 = 0.386): 738.7 ± 0.2 kg/m3 | mass density ([3]; x2 = 0.4349): 747.1 ± 0.2 kg/m3 | mass density ([3]; x2 = 0.4568): 751 ± 0.2 kg/m3 | mass density ([3]; x2 = 0.5071): 760.4 ± 0.2 kg/m3 | mass density ([3]; x2 = 0.5362): 766.1 ± 0.2 kg/m3 | mass density ([3]; x2 = 0.6042): 780.2 ± 0.2 kg/m3 | mass density ([3]; x2 = 0.7014): 802.6 ± 0.2 kg/m3 | mass density ([3]; x2 = 0.7603): 817.7 ± 0.2 kg/m3 | mass density ([3]; x2 = 0.8488): 842.7 ± 0.2 kg/m3 | mass density ([3]; x2 = 0.8968): 857.9 ± 0.2 kg/m3 | mass density ([3]; x2 = 0.9273): 868.1 ± 0.2 kg/m3 | mass density ([3]; x2 = 0.9465): 874.7 ± 0.2 kg/m3
SMILES: CC(C)CC(C)(C)C [2,2,4-trimethylpentane] + CCOC(C)=O

refractive index [1]: 1.36981 ± 0.00035 | mass density [2]: 894.4 ± 0.2 kg/m3 | vapor or sublimation pressure ([2]; 350.19 K): 100 ± 3 kPa | vapor or sublimation pressure ([2]; 462.75 K): 1500 ± 3 kPa
SMILES: CCOC(C)=O [ethyl acetate]

mass density ([3]; x2 = 0): 679.7 ± 0.3 kg/m3
SMILES: CCCCCCC [heptane] + CCOC(C)=O

mass density ([3]; x2 = 0): 679.7 ± 0.3 kg/m3
SMILES: CCCCCCC [heptane] + COC(C)=O
